Laboratory results published in US20220080027A1, “METHODS OF TREATING NEURODEGENERATIVE DISEASES BY TARGETING THE PURINERGIC AND/OR ADENOSINE RECEPTORS” (Board of Regents, The University of Texas System, priority 2020, published 2022).
Entries after “also recorded” stand apart in the source; their conditions may differ.

Columns and labels:
[1] = test system: PBMCs obtained from uninfected individuals; test: ATP release by PBMCs from uninfected individuals (ATPlite); assay type: cell-based, human; details: for effect on release of ATP in response to HIV-gp120: PBMCs from uninfected individuals, Prob 500 μM, 10Panx1 peptide 300 μM, TAK779 5 μM, AMD3100 5 μM; for induction of ATP secretion: treatment of uninfected PBMCs, 30 min
Method: (§1) ATP Assay. […] Luminescence was measured using a PerkinElmer EnVision Multilabel Plate Reader. […] To assure rigor in these determinations, some samples were submitted for blinded analysis of ATP levels using mass spectrometry (University of North Dakota, N. Dak.).
(§2) Uninfected and HIV-infected PBMCs were isolated as described above.

[2] = test system: PBMCs obtained from HIV-infected individuals; test: Spontaneous ATP release by PBMCs from HIV-infected individuals; assay type: cell-based, human; details: no stimulation, Prob 500 μM, 10Panx1 peptide 300 μM
Method: as §1, §2

[3] = test system: PBMCs obtained from HIV-infected individuals; test: Spontaneous PGE2 release by PBMCs from HIV-infected individuals; assay type: cell-based, human; details: no stimulation, Prob 500 μM, 10Panx1 peptide 300 μM
Method: (§3) Analysis of IL-1β and PGE2 release. Plasma/serum was collected, divided into aliquots, and stored at −80° C. There were no freeze-thaw cycles before analysis. Plasma/serum was analyzed for TNF-α, IL-1β (Quantikine ELISA kit; R and D Systems, Minneapolis Minn., USA) and PGE2 (Abcam, Cambridge, Mass., USA) by enzyme-linked immunosorbent assay (ELISA) according to the manufacturer's instructions.
as §2

[4] = target: T1, Panx-1 channels (Homo sapiens, UniProt Q96RD7); test: Ethidium (Etd) dye uptake, PBMCs from HIV-infected individuals; assay type: cell-based; details: for effect on spontaneous Panx-1 channel opening (Etd uptake): Prob 500 μM, 10Panx peptide 200 μM; for effect on pannexin-1 channel opening and Etd uptake: FIG. 1F legend: PROB 50 μM, CBX 50 μM, PEP 300 μM, n=60
T1 construct: PBMCs isolated from uninfected individuals maintain the pannexin-1 channels in a closed stage; endogenous in cells; host or cells: freshly isolated human PBMCs (uninfected or HIV-infected donors)
T1 sequence (Q96RD7 whole entry): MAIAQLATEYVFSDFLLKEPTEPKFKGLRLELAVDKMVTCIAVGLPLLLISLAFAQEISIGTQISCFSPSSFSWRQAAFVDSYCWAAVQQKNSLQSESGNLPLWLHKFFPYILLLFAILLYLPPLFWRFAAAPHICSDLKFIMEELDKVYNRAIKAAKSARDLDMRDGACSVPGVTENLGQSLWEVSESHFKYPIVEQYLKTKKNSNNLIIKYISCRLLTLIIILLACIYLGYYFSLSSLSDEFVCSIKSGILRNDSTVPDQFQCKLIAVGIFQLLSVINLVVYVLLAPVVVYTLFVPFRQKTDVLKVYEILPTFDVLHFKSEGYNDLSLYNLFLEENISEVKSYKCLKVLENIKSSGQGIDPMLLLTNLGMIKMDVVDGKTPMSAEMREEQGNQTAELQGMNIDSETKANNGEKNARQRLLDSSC
Method: (§4) Dye uptake and time-lapse microscopy. To characterize the functional state of Panx-1 channels, dye-uptake experiments using ethidium (Etd) bromide were performed (Cat #15585011, ThermoFisher, Grand Island, N.Y., USA). Cells were washed twice in HBSS and then exposed to Locke's solution (containing 154 mM NaCl, 5.4 mM KCl, 2.3 mM CaCl2, 5 mM HEPES, and pH 7.4) with 5 μM Etd and time-lapse microscopy were then performed. Phase-contrast and fluorescence microscopy with time-lapse imaging were used to record cell appearance and fluorescence-intensity changes in each condition. Fluorescence was recorded every 30 s. The NIH ImageJ program was used for off-line image analysis and fluorescence quantification. For data representation and calculation of Etd uptake slopes, the average of two independent background fluorescence (FB) (expressed as A.U.) was subtracted from mean fluorescent intensity (F1). Results of this calculation (F1-FB), for at least 20 cells, were averaged and plotted against time (expressed in minutes). Slopes were calculated using Microsoft Excel software and expressed as A.U./min. The microscope and camera settings remained the same in all experiments. Dead cells or cells with a damaged plasma membrane were identified during the time-lapse microscopy as a result of their nonspecific Etd uptake rate, determined by lack of time dependency and stability in dye uptake (not inhibited by channel blockers), and were not quantified.
(§5) However, the chronic effects of HIV infection on Panx-1 channel activity were unknown. To determine the status of the channel, Panx-1 channel opening was determined by Ethidium (Etd, 5 μM) uptake rate Ethidium only crosses the plasma membrane in healthy cells by passing through specific large channels, such as Connexin (Cx) and Pannexin (Panx) hemichannels, and its rate of intracellular accumulation is reflective of channel opening.
To assess the opening of the Panx-1 channels on PBMCs isolated from HIV-infected individuals, the inventors used a similar approach as described above. The inventors analyzed Panx-1 channel opening using dye uptake rate on PBMCs isolated from 60 different HIV-infected individuals, mostly with low to undetectable replication, as described in Table 1.

[5] = test system: PBMCs obtained from uninfected individuals; test: PGE2 release by PBMCs from uninfected individuals (ELISA); assay type: cell-based, human; details: for effect on release of PGE2 in response to HIV-gp120: PBMCs from uninfected individuals, Prob 500 μM, 10Panx1 peptide 300 μM, TAK779 5 μM, AMD3100 5 μM; for induction of PGE2 secretion: treatment of uninfected PBMCs, 30 min
Method: as §3, §2

[6] = target: T1, Panx-1 channels; test: Ethidium (Etd) dye uptake, PBMCs from uninfected individuals; assay type: cell-based; details: for effect on basal Etd uptake: PBMCs from uninfected individuals, Prob 500 μM, CBX 500 μM, 10Panx peptide 200 μM, FIG. 1C; for induction of Panx-1 channel opening: treatment of uninfected PBMCs, 30 min, gp120 1 μg/ml, TNF-α 10 ng/ml, IL-1β 10 U/ml, IFN-γ 10 ng/ml, LPS 1 μg/ml
Method: as §4, §5

[7] = test system: purinergic receptors; details: in vivo mouse model [116]; cited from earlier work
[8] = test system: HIV; test: HIV replication and viral entry; assay type: cell-based
[9] = test system: BBB model (primary human BMVEC and primary human astrocytes); test: BBB disruption after transmigration of HIVADA infected PBMCs; assay type: cell-based
Method: (§6) Blood-brain barrier (BBB) model: This in vitro BBB model consists of primary human BMVEC and primary human astrocytes in co-culture on opposite sides of a gelatin-coated, 3 μm pore-size tissue culture insert (Falcon, B D, Franklin Lakes, N.J.) as described by the inventors. Co-cultures were maintained for three days to enable contact between astrocyte endfeet with BMVEC on the opposite side of the model as described. After this, the BBB model was treated with different ATP concentrations (Cat #A1852, Sigma Chemical Co., St. Louis, Mo., USA), and BBB permeability was measured using BSA conjugated to Evans Blue, as described by the inventors.
(§7) PBMCs infected with the HIVADA were added to the top chamber of BBB co-cultures without CCL2 in the bottom chamber (HIV).

[10] = test system: HIVADA infected PBMCs (lymphocytes and monocytes); test: Transmigration of HIVADA infected PBMCs across the in vitro BBB model in response to CCL2; assay type: cell-based, human; details: added to the co-culture; oATP 100 μM, apyrase 100 units/ml; data not shown
Method: as §6, §7

[11] = target: CD4 on PBMCs from uninfected individuals (human) (UniProt P01730); test: cell-based or functional assay
[12] = added to the co-culture, oATP 100 μM, apyrase 100 units/ml, data not shown

Row | Molecule | effect on release of ATP in response to HIV-gp120 [1] | effect on spontaneous release of ATP [2] | effect on spontaneous release of PGE2 [3] | effect on spontaneous Panx-1 channel opening (Etd uptake) [4] | effect on release of PGE2 in response to HIV-gp120 [5] | effect on basal Etd uptake [6] | further results
1 | c1cc(CN2CCCNCCNCCCNCC2)ccc1CN1CCCNCCNCCCNCC1 [AMD3100] | prevented the release | no significant effects | no significant effects | did not prevent | prevented the release | – | –
2 | Cc1ccc(-c2ccc3c(c2)C=C(C(=O)Nc2ccc(C[N+](C)(C)C4CCOCC4)cc2)CCC3)cc1.[Cl-] [TAK779] | prevented the release | no significant effects | no significant effects | did not prevent | prevented the release | – | –
3 | CC1(C)[C@@H](OC(=O)CCC(=O)O)CC[C@]2(C)[C@H]3C(=O)C=C4[C@@H]5C[C@@](C)(C(=O)O)CC[C@]5(C)CC[C@@]4(C)[C@]3(C)CC[C@@H]12 [carbenoxolone] | – | – | – | – | – | did not affect | effect on pannexin-1 channel opening and Etd uptake [4]: able to prevent the opening of the pannexin-1 channel and Etd uptake
4 | [La] [lanthanum] | did not alter | did not alter | did not alter | did not affect | did not alter | did not have any effect | effect on release of ATP in response to HIV-gp120 ([1]; listed as Lanthanum): did not affect; effect on spontaneous release of ATP ([2]; listed as Lanthanum): did not affect; effect on spontaneous release of PGE2 ([3]; listed as Lanthanum): did not affect; effect on release of PGE2 in response to HIV-gp120 ([5]; listed as Lanthanum): did not affect
5 | Nc1ncnc2c1ncn2[C@@H](C=O)O[C@@H](C=O)COP(=O)(O)OP(=O)(O)OP(=O)(O)O [oATP] | – | – | – | – | – | – | onset of diabetes and inflammatory bowel disease [7]: can prevent the onset of diabetes and inflammatory bowel disease; systemic blocking of purinergic receptors [7]: good systemic blocker of purinergic receptors; inhibition of HIV replication and viral entry [8]: potent inhibitor; effect on BBB disruption [9, 12]: blocked; effect on transmigration [10]: blocked
6 | CCCN(CCC)S(=O)(=O)c1ccc(C(=O)O)cc1 [probenecid] | prevented the release | prevented the release | prevented the release | – | prevented the release | did not affect | effect on pannexin-1 channel opening and Etd uptake [4]: able to prevent the opening of the pannexin-1 channel and Etd uptake; effect on BBB disruption ([9]; HIVADA infected PBMCs preincubated with blocker, CCL2): reduced BBB disruption
7 | IL-1p: cytokine used to treat uninfected PBMCs | – | – | – | – | – | – | induction of ATP secretion [1]: does not induce; induction of Panx-1 channel opening [6]: does not induce; induction of PGE2 secretion [5]: does not induce
8 | TNF-α | – | – | – | – | – | – | induction of ATP secretion [1]: does not induce; induction of Panx-1 channel opening [6]: does not induce; induction of PGE2 secretion [5]: does not induce
9 | apyrase | – | – | – | – | – | – | effect on BBB disruption [9, 12]: blocked; effect on transmigration [10]: blocked
10 | recombinant protein HIV-gp120 (HIV-Bal) (ligand) | – | – | – | – | – | – | release of ATP after 30 min (uninfected PBMCs, gp120 1 µg/ml) [11]: 5.9 µM; release of PGE2 after 30 min (uninfected PBMCs, gp120 1 µg/ml) [11]: 56.8 pg/mL
11 | IFN-γ: cytokine used to treat uninfected PBMCs (protein, UniProt P01579 24-161, looked up) Interferon gamma: QDPYVKEAENLKKYFNAGHSDVADNGTLFLGILKNWKEESDRKIMQSQIVSFYFKLFKNFKDDQSIQKSVETIKEDMNVKFFNSNKKKRDDFEKLTNYSVTDLNVQRKAIHELIQVMAELSPAAKTGKRKRSQMLFRG | – | – | – | – | – | – | induction of ATP secretion [1]: does not induce; induction of Panx-1 channel opening [6]: does not induce; induction of PGE2 secretion [5]: does not induce
12 | Cx43^E2: a peptide that specifically blocks Cx43 hemichannels (peptide) VH: EVQLQQPGAELVKPGASVKLSCKASGYTFTSYYMYWVKQRPGQGLEWIGGINPSNGGTNFNEKFKNKATLTVDKSSSTAYMQLSSLTSEDSAVYYCTREGNPYYTMNYWGQGTSVTVSS VL: DIVMTQSPSSLSVSAGEKVTMSCKSSQSLLNSGNQKTYLAWYQQKPGQPPKLLIYGASTRESGVPDRFTGSGSGTDFTLTISSVQAEDLAVYYCQNDHSYPFTFGSGTKLEIK | did not alter; also recorded: did not affect | did not alter; also recorded: did not affect | did not alter; also recorded: did not affect | did not affect | did not alter; also recorded: did not affect | did not have any effect | –
